Experimental findings from patent US20080242649A1, “New Combination 665” (priority 2007, published 2008) are described below.

This assay concerns LPS-induced intra-alveolar neutrophilia. Description: Intra-alveolar neutrophil migration after intratracheal LPS challenge in the CRL:CD rat. The class given is in vivo. The protocol: Evaluation of Compound Activity on Intra-Alveolar Neutrophil Migration after Intratracheal Challenge with Lipopolysacharride (LPS) in the CRL:CD Rat
LPS challenge in CRL:CD rats causes an influx of neutrophils into the lungs. Under recoverable gaseous anaesthesia (5% isoflorane in oxygen), rats were dosed via the intratracheal route with vehicle (0.05M phosphate, 0.1% Tween 80, 0.6% saline, pH 6), or compound 30 min before challenge with an intratracheal dose of 10 μg/kg LPS.
The rats (250-400 g) were euthanized 4 hr after LPS challenge with 1 mL pentobarbitone sodium. A tracheotomy was performed and a cannula inserted. The airway was then lavaged using 3 mL Isoton at room temperature. The Isoton (BeckmanCoulter, High Wycombe, UK) was left in the airway for 10 seconds before being removed. The bronchio-alveolar lavage (BAL) fluid containing inflammatory cells was placed into a 15 mL centrifuge tube and kept on ice. This process was repeated three times. An aliquot of BAL fluid was removed and the inflammatory cells were counted on Sysmex (Sysmex UK, Milton Keynes). Neutrophils were expressed in millions/animal (mean ±s.e.mean).

Structures can show the parent of a compound that is named as a salt.

Take `CCN(CC)CCN(CCNCCc1ccc(O)c2[nH]c(=O)sc12)C(=O)CCOCCc1cccc2ccccc12` [Compound A, N-[2-(Diethylamino)ethyl]-N-(2-{[2-(4-hydroxy-2-oxo-2,3-dihydro-1,3-benzothiazol-7-yl)ethyl]amino}ethyl)-3-[2-(1-naphthyl)ethoxy]propanamide dihydrobromide]: the inhibition of neutrophilia is, setting by setting: (Compound W study, compound A 0.1 μg/kg intratracheal 30 min prior to LPS) 43%; (Compound X study, compound A 0.1 μg/kg intratracheal 30 min prior to LPS) 26%; (budesonide study, compound A 0.2 μg/kg intratracheal 30 min prior to LPS 10 μg/kg, BAL 4 hr) 45%. Besides, the “neutrophils in BAL” value reads like this: (Compound W study, compound A 0.1 μg/kg, vehicle/LPS 11±1.8) 5.0±0.70 million/animal; (Compound X study, compound A 0.1 μg/kg, vehicle/LPS 12±1.7) 9.1±1.1 million/animal; (budesonide study, compound A 0.2 μg/kg intratracheal, mean ±s.e.mean, vehicle/LPS 14±1.6) 7.8±0.71 million/animal.
